# Where two headings read alike, the source gives them in different places.
# Assays:
# [1] = test system: panel of 55 breast cancer cell lines; test: Cell growth inhibition assay (Cell Titer Glo, 72 h, 9 doses; GI50, TGI, LC50); type: cell-based, human
# [2] = test system: luminal, basal, claudin-low and ERBB2AMP breast cancer cell lines; test: Associations of clinically relevant subtypes and response (non-parametric ANOVA or t-test on GI50 ranks); type: cell-based, human; conditions: Table 6; most sensitive subtype, FDR p<0.20
# Excerpt: A central premise of this study is that associations between responses and molecular subtypes observed in preclinical cell line analyses will be recapitulated in the clinic in instances where the predictive molecular features in the cell lines are mirrored in human tumors. We established response-subtype associations by using non-parametric ANOVAs to compare […] values across transcriptional and genomics subtypes.
# Differences between GI50s of the groups were compared with a non-parametric ANOVA or t-test, as appropriate, on the ranks. We combined the p-values for the three sets of tests and used false discovery rate (FDR) to correct for multiple testing. For the three-sample test, we performed a post-hoc analysis on the compounds with a significant class effect by comparing each group to all others to determine which group was most sensitive. The p-values for the post-hoc test were FDR-corrected together. In all cases, FDR p<0.20 was deemed significant. […] Analyses were performed in R.
compound,measurement,setting,value
CCN(CC)CCCCNc1ncc2cc(-c3cc(OC)cc(OC)c3)c(NC(=O)NC(C)(C)C)nc2n1 [PD173074],GI50,"[1]; Homo sapiens, 600MPE cell line, censored GI50 values, read-out: GI50 (converted)",9.77 µM
same,GI50,"[1]; Homo sapiens, AU565, AU565 cell line, censored GI50 values, read-out: GI50 (converted)",7.41 µM
same,GI50,"[1]; Homo sapiens, AU565, cell line AU565, read-out: GI50 (converted)",7.41 µM
same,GI50,"[1]; Homo sapiens, BT-20, BT20 cell line, censored GI50 values, read-out: GI50 (converted)",15.8 µM
same,GI50,"[1]; Homo sapiens, BT-20, cell line BT20, read-out: GI50 (converted)",15.8 µM
same,GI50,"[1]; Homo sapiens, BT-474, cell line BT474, read-out: GI50 (converted)",33.1 µM
same,GI50,"[1]; Homo sapiens, BT-549, BT549 cell line, censored GI50 values, read-out: GI50 (converted)",7.41 µM
same,GI50,"[1]; Homo sapiens, BT-549, cell line BT549, read-out: GI50 (converted)",7.41 µM
same,GI50,"[1]; Homo sapiens, HCC38, cell line HCC38, read-out: GI50 (converted)",2.95 µM
same,GI50,"[1]; Homo sapiens, HCC70, cell line HCC70, read-out: GI50 (converted)",7.08 µM
same,GI50,"[1]; Homo sapiens, HCC202, cell line HCC202, read-out: GI50 (converted)",8.51 µM
same,GI50,"[1]; Homo sapiens, HCC1143, HCC1143 cell line, censored GI50 values, read-out: GI50 (converted)",13.5 µM
same,GI50,"[1]; Homo sapiens, HCC1143, cell line HCC1143, read-out: GI50 (converted)",13.5 µM
same,GI50,"[1]; Homo sapiens, HCC1187, HCC1187 cell line, censored GI50 values, read-out: GI50 (converted)",10.7 µM
same,GI50,"[1]; Homo sapiens, HCC1187, cell line HCC1187, read-out: GI50 (converted)",10.7 µM
same,GI50,"[1]; Homo sapiens, HCC1395, HCC1395 cell line, censored GI50 values, read-out: GI50 (converted)",0.617 µM
same,GI50,"[1]; Homo sapiens, HCC1395, cell line HCC1395, read-out: GI50 (converted)",0.617 µM
same,GI50,"[1]; Homo sapiens, HCC1419, HCC1419 cell line, censored GI50 values, read-out: GI50 (converted)",4.47 µM
same,GI50,"[1]; Homo sapiens, HCC1419, cell line HCC1419, read-out: GI50 (converted)",4.47 µM
same,GI50,"[1]; Homo sapiens, HCC1428, HCC1428 cell line, censored GI50 values, read-out: GI50 (converted)",6.76 µM
same,GI50,"[1]; Homo sapiens, HCC1428, cell line HCC1428, read-out: GI50 (converted)",6.76 µM
same,GI50,"[1]; Homo sapiens, HCC1500, cell line HCC1500, read-out: GI50 (converted)",24.5 µM
same,GI50,"[1]; Homo sapiens, HCC1806, HCC1806 cell line, censored GI50 values, read-out: GI50 (converted)",5.01 µM
same,GI50,"[1]; Homo sapiens, HCC1806, cell line HCC1806, read-out: GI50 (converted)",5.01 µM
same,GI50,"[1]; Homo sapiens, HCC1937, HCC1937 cell line, censored GI50 values, read-out: GI50 (converted)",7.59 µM
same,GI50,"[1]; Homo sapiens, HCC1937, cell line HCC1937, read-out: GI50 (converted)",7.59 µM
same,GI50,"[1]; Homo sapiens, HCC1954, HCC1954 cell line, censored GI50 values, read-out: GI50 (converted)",7.59 µM
same,GI50,"[1]; Homo sapiens, HCC1954, cell line HCC1954, read-out: GI50 (converted)",7.59 µM
same,GI50,"[1]; Homo sapiens, MDA-MB-157, cell line MDAMB157, read-out: GI50 (converted)",2.34 µM
same,GI50,"[1]; Homo sapiens, MDA-MB-231, cell line MDAMB231, read-out: GI50 (converted)",6.76 µM
same,GI50,"[1]; Homo sapiens, MDA-MB-361, cell line MDAMB361, read-out: GI50 (converted)",15.1 µM
same,GI50,"[1]; Homo sapiens, MDA-MB-436, cell line MDAMB436, read-out: GI50 (converted)",6.46 µM
same,GI50,"[1]; Homo sapiens, MDA-MB-453, cell line MDAMB453, read-out: GI50 (converted)",1.95 µM
same,GI50,"[1]; Homo sapiens, MDA-MB-468, cell line MDAMB468, read-out: GI50 (converted)",6.61 µM
same,GI50,"[1]; Homo sapiens, SK-BR-3, cell line SKBR3, read-out: GI50 (converted)",7.94 µM
same,GI50,"[1]; Homo sapiens, SUM52PE, cell line SUM52PE, read-out: GI50 (converted)",0.0229 µM
same,GI50,"[1]; Homo sapiens, SUM149PT, cell line SUM149PT, read-out: GI50 (converted)",9.12 µM
same,GI50,"[1]; Homo sapiens, SUM-159-PT, cell line SUM159PT, read-out: GI50 (converted)",6.46 µM
same,GI50,"[1]; Homo sapiens, T47D, cell line T47D, read-out: GI50 (converted)",13.5 µM
same,GI50,"[1]; Homo sapiens, UACC-812, cell line UACC812, read-out: GI50 (converted)",7.08 µM
same,GI50,"[1]; Homo sapiens, UACC-893, cell line UACC893, read-out: GI50 (converted)",6.92 µM
same,GI50,"[1]; Homo sapiens, ZR-75-1, cell line ZR751, read-out: GI50 (converted)",15.5 µM
same,GI50,"[1]; Homo sapiens, cell line 600MPE, read-out: GI50 (converted)",9.77 µM
same,GI50,"[1]; Homo sapiens, cell line HCC2185, read-out: GI50 (converted)",29.5 µM
same,GI50,"[1]; Homo sapiens, cell line HCC3153, read-out: GI50 (converted)",15.5 µM
same,GI50,"[1]; Homo sapiens, cell line LY2, read-out: GI50 (converted)",7.41 µM
same,GI50,"[1]; Homo sapiens, cell line MDAMB134V, read-out: GI50 (converted)",18.6 µM
same,GI50,"[1]; Homo sapiens, cell line SUM1315MO, read-out: GI50 (converted)",3.39 µM
same,Subtype specificity,[2],Claudin-low
Cc1cc(C(C)Nc2ccccc2)c2nc(N3CCOCC3)cc(=O)n2c1 (stereo not drawn) [TGX-221],GI50,"[1]; 600MPE cell line, censored GI50 values, value is the negative log10 of mol/L",5.09
same,GI50,"[1]; AU565 cell line, censored GI50 values, value is the negative log10 of mol/L",5.18
same,GI50,"[1]; BT20 cell line, censored GI50 values, value is the negative log10 of mol/L",4.77
same,GI50,"[1]; BT474 cell line, censored GI50 values, value is the negative log10 of mol/L",5.10
same,GI50,"[1]; BT483 cell line, censored GI50 values, value is the negative log10 of mol/L",5.37
same,GI50,"[1]; CAMA1 cell line, censored GI50 values, value is the negative log10 of mol/L",5.10
same,GI50,"[1]; HCC38 cell line, censored GI50 values, value is the negative log10 of mol/L",5.11
same,GI50,"[1]; HCC70 cell line, censored GI50 values, value is the negative log10 of mol/L",5.98
same,GI50,"[1]; HCC202 cell line, censored GI50 values, value is the negative log10 of mol/L",5.20
same,GI50,"[1]; HCC1187 cell line, censored GI50 values, value is the negative log10 of mol/L",5.48
same,GI50,"[1]; HCC1395 cell line, censored GI50 values, value is the negative log10 of mol/L",5.13
same,GI50,"[1]; HCC1419 cell line, censored GI50 values, value is the negative log10 of mol/L",5.16
same,GI50,"[1]; HCC1428 cell line, censored GI50 values, value is the negative log10 of mol/L",4.77
same,GI50,"[1]; HCC1954 cell line, censored GI50 values, value is the negative log10 of mol/L",4.79
same,GI50,"[1]; HCC3153 cell line, censored GI50 values, value is the negative log10 of mol/L",4.38
same,GI50,"[1]; LY2 cell line, censored GI50 values, value is the negative log10 of mol/L",4.78
same,GI50,"[1]; MDAMB134VI cell line, censored GI50 values, value is the negative log10 of mol/L",4.78
same,GI50,"[1]; MDAMB231 cell line, censored GI50 values, value is the negative log10 of mol/L",4.61
same,GI50,"[1]; MDAMB361 cell line, censored GI50 values, value is the negative log10 of mol/L",4.75
same,GI50,"[1]; MDAMB436 cell line, censored GI50 values, value is the negative log10 of mol/L",4.72
same,GI50,"[1]; MDAMB453 cell line, censored GI50 values, value is the negative log10 of mol/L",4.81
same,GI50,"[1]; MDAMB468 cell line, censored GI50 values, value is the negative log10 of mol/L",6.27
same,GI50,"[1]; SKBR3 cell line, censored GI50 values, value is the negative log10 of mol/L",5.33
same,GI50,"[1]; SUM159PT cell line, censored GI50 values, value is the negative log10 of mol/L",4.49
same,GI50,"[1]; SUM1315MO2 cell line, censored GI50 values, value is the negative log10 of mol/L",5.04
same,GI50,"[1]; cell line 600MPE, value is the negative log10 of mol/L",5.09
same,GI50,"[1]; cell line AU565, value is the negative log10 of mol/L",5.18
same,GI50,"[1]; cell line BT20, value is the negative log10 of mol/L",4.77
same,Subtype specificity,[2],Luminal
